What was measured:
[1] = molecular target: Methionine--tRNA ligase (Escherichia coli) (UniProt P00959); test: Inhibitory activity against Escherichia coli Methionyl-tRNA synthetase was determined
[2] = molecular target: Isoleucine--tRNA ligase (Escherichia coli) (UniProt P00956); test: Inhibitory activity against Escherichia coli Isoleucyl-tRNA synthetase was determined
[3] = molecular target: Isoleucine--tRNA ligase (Escherichia coli) (UniProt P00956); test: as above; remark: listed apart in the source
[4] = molecular target: Methionine--tRNA ligase (Escherichia coli) (UniProt P00959); test: Inhibitory activity against Escherichia coli Methionyl-tRNA synthetase was determined; remark: listed apart in the source

Sequence of Isoleucine--tRNA ligase (Escherichia coli) (P00956 whole entry, looked up): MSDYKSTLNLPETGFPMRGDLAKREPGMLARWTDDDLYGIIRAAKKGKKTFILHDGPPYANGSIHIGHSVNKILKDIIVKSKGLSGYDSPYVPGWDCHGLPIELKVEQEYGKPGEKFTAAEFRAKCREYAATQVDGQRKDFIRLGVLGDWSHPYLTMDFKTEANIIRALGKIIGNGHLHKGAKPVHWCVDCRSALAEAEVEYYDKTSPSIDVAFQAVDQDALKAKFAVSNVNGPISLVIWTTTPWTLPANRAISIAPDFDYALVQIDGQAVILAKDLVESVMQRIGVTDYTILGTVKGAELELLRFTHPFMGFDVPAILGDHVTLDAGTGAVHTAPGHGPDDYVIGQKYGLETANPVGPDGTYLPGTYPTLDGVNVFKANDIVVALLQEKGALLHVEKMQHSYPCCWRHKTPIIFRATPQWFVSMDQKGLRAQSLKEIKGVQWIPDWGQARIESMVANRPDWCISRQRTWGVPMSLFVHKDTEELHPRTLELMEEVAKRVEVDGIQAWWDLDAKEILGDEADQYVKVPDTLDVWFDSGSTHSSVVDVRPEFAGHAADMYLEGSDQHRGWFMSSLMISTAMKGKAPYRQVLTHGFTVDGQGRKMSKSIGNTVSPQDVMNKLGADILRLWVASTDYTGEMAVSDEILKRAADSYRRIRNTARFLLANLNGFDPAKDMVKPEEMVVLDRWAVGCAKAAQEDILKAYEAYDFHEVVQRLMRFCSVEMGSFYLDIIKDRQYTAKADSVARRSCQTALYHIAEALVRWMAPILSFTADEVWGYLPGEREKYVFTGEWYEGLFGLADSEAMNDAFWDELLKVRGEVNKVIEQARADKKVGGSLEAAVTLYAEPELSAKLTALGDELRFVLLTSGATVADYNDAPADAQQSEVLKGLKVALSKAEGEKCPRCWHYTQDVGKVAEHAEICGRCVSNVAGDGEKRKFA
Sequence of Methionine--tRNA ligase (Escherichia coli) (P00959 whole entry, looked up): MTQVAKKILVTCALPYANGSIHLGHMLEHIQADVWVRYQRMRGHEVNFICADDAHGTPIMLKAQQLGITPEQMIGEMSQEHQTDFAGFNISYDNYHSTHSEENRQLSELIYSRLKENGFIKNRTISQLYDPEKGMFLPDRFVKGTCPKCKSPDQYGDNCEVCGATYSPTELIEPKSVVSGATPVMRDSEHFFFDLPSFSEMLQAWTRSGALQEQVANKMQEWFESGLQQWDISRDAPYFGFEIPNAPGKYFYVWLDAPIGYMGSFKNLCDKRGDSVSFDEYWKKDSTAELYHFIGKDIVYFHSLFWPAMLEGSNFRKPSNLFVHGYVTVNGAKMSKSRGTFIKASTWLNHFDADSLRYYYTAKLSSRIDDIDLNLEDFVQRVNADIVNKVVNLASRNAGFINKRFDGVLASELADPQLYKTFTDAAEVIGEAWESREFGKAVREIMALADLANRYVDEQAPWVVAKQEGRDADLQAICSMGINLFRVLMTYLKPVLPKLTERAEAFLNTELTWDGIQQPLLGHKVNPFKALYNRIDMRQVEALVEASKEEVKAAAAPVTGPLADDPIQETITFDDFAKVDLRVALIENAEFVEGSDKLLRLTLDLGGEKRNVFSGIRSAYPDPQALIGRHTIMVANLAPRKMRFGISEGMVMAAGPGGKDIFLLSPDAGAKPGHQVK

Row | IC50 [3] [µM] | IC50 [4] [µM] | SMILES | also measured
1 |  |  | CSCC[C@H](N)C(=O)NS(=O)(=O)OC[C@H]1O[C@@H](n2cnc3c(N)ncnc32)[C@H](O)[C@@H]1O | IC50 [1]: 0.007 µM
2 |  |  | CC[C@H](C)[C@H](N)C(=O)NS(=O)(=O)OC[C@H]1O[C@@H](n2cnc3c(N)ncnc32)[C@H](O)[C@@H]1O | IC50 [2]: 0.098 µM
3 | 22.2 |  | CC[C@H](C)[C@H](N)C(=O)NS(=O)(=O)OC[C@H]1OC(n2cnc3c(NC)nc(I)nc32)[C@H](O)[C@@H]1O (stereo partly specified) | 
4 |  | 1.1 | C#Cc1nc(N)c2ncn(C3O[C@H](COS(=O)(=O)NC(=O)[C@@H](N)CCSC)[C@@H](O)[C@H]3O)c2n1 (stereo partly specified) | 
5 | 0.039 |  | C#Cc1nc(N)c2ncn(C3O[C@H](COS(=O)(=O)NC(=O)[C@@H](N)[C@@H](C)CC)[C@@H](O)[C@H]3O)c2n1 (stereo partly specified) | 
6 |  | 1.9 | CCCCC#Cc1nc(N)c2ncn(C3O[C@H](COS(=O)(=O)NC(=O)[C@@H](N)CCSC)[C@@H](O)[C@H]3O)c2n1 (stereo partly specified) | 
7 |  | 106 | CSCC[C@H](N)C(=O)NS(=O)(=O)N(O)C[C@H]1OC(n2cnc3c(N)ncnc32)[C@H](O)[C@@H]1O (stereo partly specified) | 
8 | 12.8 |  | CC[C@H](C)[C@H](N)C(=O)NS(=O)(=O)NOC[C@H]1OC(n2cnc3c(N)ncnc32)[C@H](O)[C@@H]1O (stereo partly specified) | 
9 |  | 7.4 | CSCC[C@H](N)C(=O)NS(=O)(=O)OC[C@H]1OC(n2cnc3c(N)nc(Cl)nc32)[C@H](O)[C@@H]1O (stereo partly specified) | 
10 |  | 19.7 | CSCC[C@H](N)C(=O)NS(=O)(=O)NOC[C@H]1OC(n2cnc3c(N)ncnc32)[C@H](O)[C@@H]1O (stereo partly specified) | 
11 |  | 1.2 | CSCC[C@H](N)C(=O)NS(=O)(=O)OC[C@H]1OC(n2cnc3c(N)nc(I)nc32)[C@H](O)[C@@H]1O (stereo partly specified) | 
12 | 0.014 |  | CC[C@H](C)[C@H](N)C(=O)NS(=O)(=O)OC[C@H]1OC(n2cnc3c(N)nc(I)nc32)[C@H](O)[C@@H]1O (stereo partly specified) | 
13 | 5.5 |  | CC[C@H](C)[C@H](N)C(=O)NS(=O)(=O)OC[C@H]1OC(n2cnc3c(N)nc(Cl)nc32)[C@H](O)[C@@H]1O (stereo partly specified) | 
14 | 132 |  | CC[C@H](C)[C@H](N)C(=O)NS(=O)(=O)N(O)C[C@H]1OC(n2cnc3c(N)ncnc32)[C@H](O)[C@@H]1O (stereo partly specified) | 
15 |  | 191 | CNc1nc(I)nc2c1ncn2C1O[C@H](COS(=O)(=O)NC(=O)[C@@H](N)CCSC)[C@@H](O)[C@H]1O (stereo partly specified) | 
16 | 1.1 |  | CCCCC#Cc1nc(N)c2ncn(C3O[C@H](COS(=O)(=O)NC(=O)[C@@H](N)[C@@H](C)CC)[C@@H](O)[C@H]3O)c2n1 (stereo partly specified) | 
